Patent publication US8241659B2, “Nutrition with lipids and non-digestible saccharides” (N. V. Nutricia, priority 2005, dated 2012)

How the values were obtained:
Bifidobacteria = assay: Growth in the presence of butyrate (data not shown); assay type: cell-based; conditions: 10 mM butyrate
lactic acid bacteria = assay: as above; assay type: cell-based; conditions: 10 mM butyrate

CCCC(=O)O [butyrate]
growth inhibition (Bifidobacteria): not inhibited
growth inhibition (lactic acid bacteria): not inhibited
